Data set [1] addresses T1, Mab-SaS (Mycobacteroides abscessus, UniProt B1MAQ5). Description: Grating-Coupled Interferometry (GCI) binding analysis. More on the design: species or system M. abscessus. The note with it: 25 °C, 1:1 kinetic model. As to the method: The binding affinity and ligand efficiency of the furan-based library was evaluated by Grating-Coupled Interferometry (GCI). The analyses were performed by the Creoptix WAVE system (Malvern Panalytical, Malvern, UK). Borate buffer (100 mM sodium borate pH 9.0, 1 M NaCl) was used for chip conditioning. Experiments were carried out by reversibly capturing His-tagged Mab-SaS (50 μg/mL in running buffer, i.e., PBS, 0.05% Tween 20, 0.5% DMSO) on 4PCP-NTA WAVE chips, according to the manufacturer’s instructions, at a density of 3000 pg/mm^2.
Regeneration-free injections of a 1:2 dilution series in the 500–3 μM range for each compound of the furan-based library in running buffer were performed at 25 °C, using a flow rate of 100 μL/min.
A dimethyl sulfoxide (DMSO) calibration curve was used for bulk correction, and blank injections for double referencing. Data were analyzed and corrected using the Creoptix WAVE control software (correction applied: X and Y offset; DMSO calibration; double referencing). The processed data were fitted using the “1:1” kinetic model of the WAVE control software. All the experiments were performed in triplicate. Descriptive Statistical Analysis, as implemented in Microsoft Office Excel 10 (Microsoft Corporation, Redmond, WA, USA), was employed to calculate the mean of the obtained values of kon, koff, and KD as a measure of central tendency; standard deviations of the former values were computed as a measure of dispersion.

In a further data set the test system is M. bovis BCG. The following applies: cited from earlier work.
A further data set has as its system Mab. Kind of data set: MIC evaluation by resazurin assay in iron-limiting conditions. The format is cell-based, M. abscessus. The note with it: Mycobacteroides abscessus, chelated Sauton's medium, highest concentration tested 500 μM, read-out: antimycobacterial activity (MIC). Here is the method:
Exponentially growing primary cultures were diluted 1:10 in iron-depleted Sauton’s medium enriched with 10% OACD. The secondary Mab culture growing in iron-limiting conditions was then diluted to OD600 0.005 using iron-depleted Sauton’s medium. Each well of the 96-well plate was filled with 100 μL of the diluted cell suspension. For each plate, the first four wells of the first row were filled with the cellular suspension and no drug was added (negative control). The following four wells were filled with the cellular suspension and treated with the vehicle volume. The last four wells of the first row were filled with the cellular suspension and treated with 1 mg/mL Streptomycin (positive control). Only the first well of the other rows was filled with 200 μL of cell suspension. In this well, the highest concentration of compound 1 (500 µM) was added and then two-fold serially diluted. After 24 h of incubation at 37 °C, 10 μL/well of 0.01% resazurin was added. The plate was re-incubated at 37 °C for 24 h and then read out. Pink wells indicated bacterial viability, whereas wells with an unchanged blue color indicated cidality. The MIC was counted as the lowest compound concentration causing cidality.
(Alamar Blue is a resazurin reagent that responds to reducing activity.)

Data set [2] deals with T1, Mab-SaS. Description: Mab-SaS inhibition, fluorimetric enzymatic assay. The format is biochemical, M. abscessus. The note with it: for remaining activity at 100 µM: 100 μM ligand concentration, read-out: %RA (residual enzymatic activity). As to the method:
The selected furan-based compounds were screened against Mab-SaS enzymatic activity at 100 µM (dissolved in a solution containing 10% DMSO). Assays were performed at subsaturating concentrations of chorismic acid (50 μM), as above. For the most promising compounds, the IC50 value was also determined.
To further verify the reliability of the inhibition results against Mab-SaS, we determined the IC50 of compound 1 in the presence of 0.1 mg/mL bovine serum albumin (BSA) or in the presence of 0.01% (v/v) Triton X-100 as a detergent. Moreover, to exclude an unspecific binding to cysteine residues, we also tested the IC50 with 100 μM of 1,4-dithio-DL-threitol (DTT).

Data set [3] concerns C=C(O[C@@H]1C=C(C(=O)O)C=C[C@H]1O)C(=O)O. Description: purified protein, by the assay type. The note with it: other: substrate of Mab-SaS, 37 °C, pH 7.5.
The mark [4] stands for this setting: no additive, 50 μM chorismic acid, read-out: IC50.

Read-outs that look alike come from different tables or passages of the source.

In general, Kd refers to the concentration at which binding is half-saturated. A low value points to tighter binding. One may read the koff as the first-order rate constant of dissociation. Read a low koff as slow dissociation. As usually defined, the kon is a measure of how fast the partners come together. A lower kon goes with slow association. As usually defined, the MIC is the smallest concentration in the dilution series that meets the test's criterion for growth inhibition. Broadly, the IC50 is the point on the concentration scale where inhibition reaches its midpoint. The inhibition is the change of the read-out against control, counted positive when it falls. A high value points to strong suppression. In general, Km refers to the substrate concentration at which the rate is half of its maximum.

T1 sequence (B1MAQ5 entry or part of it): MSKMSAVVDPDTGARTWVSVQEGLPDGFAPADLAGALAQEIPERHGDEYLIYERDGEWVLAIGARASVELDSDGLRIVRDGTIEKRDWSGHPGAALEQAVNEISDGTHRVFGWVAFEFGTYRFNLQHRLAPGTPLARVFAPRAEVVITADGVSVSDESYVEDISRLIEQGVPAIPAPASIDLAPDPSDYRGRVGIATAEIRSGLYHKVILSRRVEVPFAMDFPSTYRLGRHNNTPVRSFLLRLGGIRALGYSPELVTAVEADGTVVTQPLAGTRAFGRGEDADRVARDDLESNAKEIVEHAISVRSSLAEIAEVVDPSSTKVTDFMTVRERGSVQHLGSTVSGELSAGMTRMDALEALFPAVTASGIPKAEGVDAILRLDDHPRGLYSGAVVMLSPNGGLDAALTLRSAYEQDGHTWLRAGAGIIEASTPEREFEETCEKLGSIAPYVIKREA

For `O=C(O)c1ccc(-c2ccc(C(F)(F)F)cc2C(F)(F)F)o1` [Compound 1, 5-(2,4-bis(trifluoromethyl)phenyl)furan-2-carboxylic acid], binding on Mab-SaS [1] was characterised by a dissociation constant (Kd) of 6.11 ± 0.16 µM. For the same compound, the dissociation rate constant (koff) at Mab-SaS [1] was 9.77e-05 s⁻¹. On Mab-SaS [1], this compound registered a kon of 15.4 ± 5 M⁻¹ s⁻¹. In addition, the “antimycobacterial activity on M. bovis BCG” value with M. bovis BCG was 500 µM. For the same compound, the minimum inhibitory concentration (MIC) with Mab was above 500 µM. In addition, the 50% inhibitory concentration (IC50) on Mab-SaS [2] (100 μM DTT in the reaction mixture, read-out: IC50 in the presence of DTT) amounted to 6.1 ± 1.42 µM; on Mab-SaS [2] (0.1 mg/mL bovine serum albumin (PAIN analysis), read-out: IC50 in the presence of BSA) it was 5.2 ± 0.68 µM; at Mab-SaS [2] (0.01% (v/v) Triton X-100 (PAIN analysis), read-out: IC50 in the presence of Triton X-100), 6.5 ± 0.56 µM; on Mab-SaS [2] (setting [4]), 5.3 ± 1.5 µM. The compound further displayed an inhibition at 100 µM against Mab-SaS [2] (100 μM compound) of 98.8%. Further, at Mab-SaS [2] (50 μM chorismic acid), the remaining activity at 100 µM came to 1.2 ± 2.8%.

At Mab-SaS [1], `O=C(O)c1ccc(-c2cc(C(F)(F)F)cc(C(F)(F)F)c2)o1` [Compound 3, 5-(3,5-bis(trifluoromethyl)phenyl)furan-2-carboxylic acid] showed a Kd of 67.5 ± 9.51 µM, a koff of 0.00675 ± 6.1e-07 s⁻¹ and a kon of 100 ± 500 M⁻¹ s⁻¹. For the same compound, on Mab-SaS [2] (50 μM chorismic acid), the remaining activity at 100 µM came to 15.6 ± 2.5%. The IC50 at Mab-SaS [2] (setting [4]) was 29.5 ± 1.6 µM.

Take `Nc1cc([N+](=O)[O-])ccc1-c1ccc(C(=O)O)o1` [Compound 2, 5-(2-amino-4-nitrophenyl)furan-2-carboxylic acid]: on Mab-SaS [1], the Kd worked out at 12.7 ± 3.32 µM, the koff came out at 0.00303 s⁻¹ and the kon amounted to 244 ± 6200 M⁻¹ s⁻¹. The remaining activity at 100 µM on Mab-SaS [2] (50 μM chorismic acid) came out at 2.3 ± 0.7%. In addition, on Mab-SaS [2] (setting [4]), the IC50 was 23.6 ± 1.8 µM.

For “Mab-SaS (Mycobacteroides abscessus ATCC 19977)”, in data set [3], the Km amounted to 58 µM.
